Laboratory results published in patent publication US20230227466A1, “SUBSTITUTED THIENOPYRIMIDINES THAT INTERACT WITH THE RAS SUPERFAMILY FOR THE TREATMENT OF CANCERS, INFLAMMATORY DISEASES, RASOPATHIES, AND FIBROTIC DISEASE” (SHY Therapeutics, LLC, priority 2020, published 2023).
Like-named read-outs stand apart in the source and are kept apart here.

Experiments:
KRas G12C mutant = target: T1, KRas G12C mutant (Homo sapiens, UniProt P01116, G12C); assay: Ras GTP binding domain inhibition assay (labeled-GTP competition, cell-free)
T1 construct: made in house
Outline: (§1)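 Immobilized His-tagged protein (Ni plate, 10-30 μg/mL, overnight 4° C); compound 20 μM or dilution series, 1% DMSO, 3 h RT, ±Sos 556-1049 last hour; Cy3/Cy5-GTP 100 nM, 45 min RT; 3× wash; bound fluorescence read.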

KRas G12D mutant = target: T2, KRas G12D mutant (Homo sapiens, UniProt P01116, G12D); assay: as above
T2 construct: made in house
Outline: as §1

KRas Q61H mutant = target: T3, KRas Q61H mutant (Homo sapiens, UniProt P01116, Q61H); assay: as above; conditions: at 20 μM
T3 construct: made in house
Outline: as §1

[1] = system: MIA-PaCa-2 pancreatic cancer cell line (KRAS G12C); assay: Cell proliferation assay (CellTiter 96 Aqueous One); assay type: cell-based; conditions: Homo sapiens; for IC50: MIA PaCa-2, MIA PaCa-2; for inhibition at 10 µM: MIA PaCa-2, read-out: % inh cell proliferation (10 μM) in MIA PaCa-2
Outline: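 After overnight attachment, compounds are added (10 μM final or serial dilutions) and left 2–4 days, with viability then measured by MTS.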

KRas wild type = KRas wild type (Homo sapiens, UniProt P01116); assay: Ras GTP binding domain inhibition assay (labeled-GTP competition, cell-free); set-up: made in house
Outline: as §1

Rac-1 = Rac-1 (Homo sapiens, UniProt P63000); assay: as above; set-up: made in house
Outline: as §1

Rho-A = Rho-A (Homo sapiens, UniProt P61586); assay: as above; set-up: made in house
Outline: as §1

[2] = with SOS, read-out: KRas G12C mutant + SOS: % inh.
[3] = without SOS, read-out: KRas G12C mutant: % inh.
[4] = with SOS, read-out: KRas G12D mutant + SOS: % inh.
[5] = without SOS, read-out: KRas G12D mutant: % inh.
[6] = with SOS, read-out: KRas Q61H mutant + SOS: % inh.
[7] = without SOS, read-out: KRas Q61H mutant: % inh.
[8] = with SOS, read-out: KRas wild type + SOS: % inh.
[9] = without SOS, read-out: KRas wild type: % inh.
[10] = with SOS, read-out: Rac-1 + SOS: % inh.
[11] = without SOS, read-out: Rac-1: % inh.
[12] = with SOS, read-out: Rho-A + SOS: % inh.
[13] = without SOS, read-out: Rho-A: % inh.

inhibition at 20 µM (KRas G12C mutant; [2]) | inhibition at 20 µM (KRas G12C mutant; [3]) | inhibition at 20 µM (KRas G12D mutant; [4]) | inhibition at 20 µM (KRas G12D mutant; [5]) | inhibition at 20 µM (KRas Q61H mutant; [6]) | inhibition at 20 µM (KRas Q61H mutant; [7]) | IC50 [1] | inhibition at 20 µM (KRas wild type; [8]) | inhibition at 20 µM (KRas wild type; [9]) | inhibition at 20 µM (Rac-1; [10]) | inhibition at 20 µM (Rac-1; [11]) | inhibition at 20 µM (Rho-A; [12]) | inhibition at 20 µM (Rho-A; [13]) | Compound | inhibition at 10 µM [1]
51 to 75% | 51 to 75% | 51 to 75% | 51 to 75% | 76 to 100% | 76 to 100% | 5 to 10 µM | 51 to 75% | 51 to 75% | 26 to 50% | 1 to 25% | 51 to 75% | 51 to 75% | CO[C@H]1CC[C@@H](Nc2nc(-c3ccccn3)nc3sc(-c4ccn(C(C)C)n4)c(C)c23)C1 (racemic) [Compound 69, Rac-6-(1-isopropyl-1H-pyrazol-3-yl)-N-((1R,3S)-3-methoxycyclopentyl)-5-methyl-2-(pyridine-2-yl)thieno[2,3-d]pyrimidin-4-amine] | 76 to 100%
26 to 50% | 51 to 75% | 26 to 50% | 26 to 50% | 26 to 50% | 26 to 50% | 5 to 10 µM | 26 to 50% | 26 to 50% | 26 to 50% | 26 to 50% | 51 to 75% | 51 to 75% | COC1CCCN(c2nc(-c3ccccn3)nc3sc(-c4ccn(C(C)C)n4)c(C)c23)C1 (racemic) [Compound 70, Rac-6-(1-Isopropyl-1H-pyrazol-3-yl)-4-(3-methoxypiperidin-1-yl)-5-methyl-2-(pyridin-2-yl)thieno[2,3-d]pyrimidine] | 76 to 100%
26 to 50% | 26 to 50% | 1 to 25% | 0% | 51 to 75% | 26 to 50% | 5 to 10 µM | 26 to 50% | 26 to 50% | – | 0% | – | 76 to 100% | COCC1CCN(c2nc(-c3ccccn3)nc3sc(-c4ccn(C(C)C)n4)c(C)c23)C1 (racemic) [Compound 71, Rac-6-(1-Isopropyl-1H-pyrazol-3-yl)-4-(3-(methoxymethyl)pyrrolidin-1-yl)-5-methyl-2-(pyridin-2-yl)thieno[2,3-d]pyrimidine] | 76 to 100%
0% | 1 to 25% | 26 to 50% | 51 to 75% | 51 to 75% | 26 to 50% | < 1 µM | 51 to 75% | 51 to 75% | – | 1 to 25% | – | 26 to 50% | COCC1CCN(c2nc(-c3nccn3C)nc3sc(-c4ccn(C(C)C)n4)c(-c4ccccc4)c23)C1 (racemic) [Compound 76, Rac-6-(1-isopropyl-1H-pyrazol-3-yl)-4-(3-(methoxymethyl)pyrrolidin-1-yl)-2-(1-methyl-1H-imidazol-2-yl)-5-phenylthieno[2,3-d]pyrimidine] | 76 to 100%
0% | 26 to 50% | 26 to 50% | 51 to 75% | 26 to 50% | 1 to 25% | 5 to 10 µM | 26 to 50% | 26 to 50% | – | 1 to 25% | – | 26 to 50% | COC1CCCN(c2nc(-c3nccn3C)nc3sc(-c4ccn(C(C)C)n4)c(-c4ccccc4)c23)C1 (racemic) [Compound 77, Rac-6-(1-isopropyl-1H-pyrazol-3-yl)-4-(3-methoxypiperidin-1-yl)-2-(1-methyl-1H-imidazol-2-yl)-5-phenylthieno[2,3-d]pyrimidine] | 76 to 100%
